Results reported in article PMC6934184, “Selective DNA-PKcs inhibition extends the therapeutic index of localized radiotherapy and chemotherapy” (The Journal of Clinical Investigation, 2019).

Target: T1, MAP2K1 (MEK1) S218D S222D (Homo sapiens, UniProt Q02750, S218D/S222D)
T1 construct: purchased Thermo Fisher Scientific (Life Technologies) SelectScreen
Experiment: SelectScreen LanthaScreen
Assay type: binding
Conditions: read-out: % displacement
Procedure, shortened: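 Percent values come from Thermo SelectScreen profiling of NU5455, combining activity and binding assays. CSF1R was run in Z'LYTE format at Km app ATP, and CAMK1 in Adapta format with ATP listed at 10.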

T1 sequence (Q02750 whole entry S218D/S222D): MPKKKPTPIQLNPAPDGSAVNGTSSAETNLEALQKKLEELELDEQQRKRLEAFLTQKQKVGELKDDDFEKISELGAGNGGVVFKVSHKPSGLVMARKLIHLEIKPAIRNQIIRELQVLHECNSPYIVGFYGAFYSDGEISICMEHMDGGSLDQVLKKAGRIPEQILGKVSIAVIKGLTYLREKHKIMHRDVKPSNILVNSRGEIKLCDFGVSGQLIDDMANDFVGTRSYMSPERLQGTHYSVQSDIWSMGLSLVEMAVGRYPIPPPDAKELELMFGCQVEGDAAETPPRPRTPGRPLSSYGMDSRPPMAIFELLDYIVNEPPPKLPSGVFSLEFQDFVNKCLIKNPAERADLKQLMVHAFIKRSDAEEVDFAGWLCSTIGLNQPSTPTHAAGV

Compound `CN(C(=O)CN1CCOCC1)c1ccc2sc3c(-c4cccc5c(=O)cc(N6CC7CCC(C6)O7)oc45)cccc3c2c1` [NU5455] has an inhibition at 1 µM of -0.1%.
